{
  "source": "patent US20240150286A1",
  "about": "“PEROXISOME PROLIFERATOR-ACTIVATED RECEPTOR GAMMA (PPARy) LIGANDS AND METHODS OF USE AS TREATMENTS FOR INSULIN RESISTANCE, OBESITY, FATTY LIVER DISEASE, AND TYPE 2 DIABETES” (The Board of Regents of the University of Oklahoma, priority 2022, published 2024)",
  "key": {"[1]": {"biological_target": "T1, PPARγ ligand-binding domain (LBD) (Homo sapiens, UniProt P37231)", "T1 construct": "purchased Thermo Fisher Scientific", "T1 sequence (P37231 238-503 limits assumed)": "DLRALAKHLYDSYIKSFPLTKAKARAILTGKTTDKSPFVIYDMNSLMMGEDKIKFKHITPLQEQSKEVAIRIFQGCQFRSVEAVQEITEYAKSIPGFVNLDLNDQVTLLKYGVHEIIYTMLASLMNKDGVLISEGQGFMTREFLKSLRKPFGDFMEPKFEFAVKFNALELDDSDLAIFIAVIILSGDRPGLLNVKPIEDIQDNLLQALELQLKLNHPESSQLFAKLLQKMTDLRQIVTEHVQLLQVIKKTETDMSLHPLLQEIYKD", "assay": "In vitro competition binding assay (PolarScreen PPARγ-Competitor, fluorescence polarization)", "protocol": "The in vitro competition binding assays was performed using PolarScreen™ PPARγ-Competitor Assay Kit according to the manufacturer's instructions. Briefly, compounds at 2-fold titration serial concentrations were incubated with GST-tagged PPARγ ligand-binding domain (LBD, 34 nM) and Fluormone PPAR Green tracer (9 nM) for 4 hours in the dark at room temperature in a black 384-well assay plate (Corning Glass cat. no. 677). The florescence polarization value (mP) was measured at 485 nm (excitation) and at 535 nm (emission) using a microplate reader."}, "3T3-L1 cells": {"tested_on": "3T3-L1 cells", "assay": "3T3-L1 adipocyte differentiation (Oil Red O staining, adipogenic gene mRNA)", "assay_type": "cell-based, mouse", "protocol": "3T3-L1 preadipocytes were differentiated. In brief, cells at around 60%-70% confluence were induced for differentiation with DMEM containing 10% FBS, 1 μg/ml insulin, 1 μM dexamethasone, and 0.5 mM IBMX for 48 h in the presence or absence of compounds and were then exposed in maintenance medium (1 μg/mL insulin in 10% FBS/DMEM) containing compounds. The medium was renewed every 2 days for total 8 days of differentiation when the cells became differentiated and lipid droplets were apparent. For primary preadipocyte differentiation, isolation of primary preadipocytes was performed. Briefly, fat depots were digested in PBS containing collagenase D (1.5 U/ml) at 37° C. for 40-45 min. The primary cells were filtered through 70 μm cell strainer and centrifuge at 700 g to collect stromal vascular fraction (SVF). The SVF cell pellets were plated on collagen coated plates. […]\nTotal RNA (2 μg) was isolated from tissues or cells using TRIzol reagents (Life Technologies) and reverse transcribed using oligo d(T) primers (New England Biosystems) and SuperScript IV reverse transcription kit (Applied Biosystems). qPCR was performed in a CFX96 Touch Real-Time PCR detection system using SYBR Green mix (Applied Biosystems). […] Relative mRNA expression was determined by the ΔΔCt method normalized to TBP mRNA. […]"}, "[2]": {"tested_on": "PPARγ S273 phosphorylation", "assay": "PPARγ S273 phosphorylation and phosphorylation-dependent genes in 3T3-L1 differentiated adipocytes", "assay_type": "cell-based, mouse", "protocol": "(§1) Total RNA (2 μg) was isolated from tissues or cells using TRIzol reagents (Life Technologies) and reverse transcribed using oligo d(T) primers (New England Biosystems) and SuperScript IV reverse transcription kit (Applied Biosystems). qPCR was performed in a CFX96 Touch Real-Time PCR detection system using SYBR Green mix (Applied Biosystems). The amplification program was as follows: initial denaturation at 95° C. for 15 min, followed by 40 cycles of 95° C. for 15 s, 60° C. for 1 min, and 40° C. for 30 s. Relative mRNA expression was determined by the ΔΔCt method normalized to TBP mRNA."}, "[3]": {"tested_on": "diet-induced obesity (DIO) mice", "assay": "Glucose tolerance, insulin tolerance and serum biochemistry in DIO mice", "assay_type": "in vivo, mouse", "protocol": "(§2) C57BL/6J male mice were obtained from Jackson laboratory (Bar Harbor, ME) and maintained on a 12 h light (6:00 AM to 6:00 PM)—12 h dark (6:00 PM to 6:00 AM) cycle at an ambient temperature of 22±1° C. All animals had access to diet and water ad libitum. All procedures involving animals were approved by the Institutional Animal Care and Use Committee of the University of Oklahoma Health Science Center. All experiments were performed with age-matched male mice. The mice were fed a high-fat diet (HFD) (60% kcal fat, Bio-Serv, NJ, USA) starting from the age of 6 weeks until study end. […] Food intake was determined manually by measuring the amount of input food subtracting the amount of the food remaining in the food hopper and the crumbs on the bedding of the cage each day for three days during the 4th week of the treatment. Packed cell volume (PCV) was measured with blood drawn from tail on a LW Scientific E8 centrifuge (LW Scientific, Lawrenceville, Georgia, USA) microhematocrit centrifuge at the end of study. For all other measurements, the blood was drawn at the time of euthanization.\nIntraperitoneal glucose tolerance test (ipGTT) was performed after 6-h fasting. Blood glucose levels were measured at 0, 15, 30, 60, and 120 min glucometer (OneTouch Ultra 2 Meter) after an intraperitoneal administration of glucose at dose of 1.5 g/kg body weight. Intraperitoneal insulin tolerance test (ipITT) was performed after 6 h fasting. Blood glucose levels were measured at 0, 15, 30, 60, and 120 min after an intraperitoneal administration of human insulin at dose of 1.2 IU/kg body weight.\nSerum insulin (ALPCO, NH, USA), serum cholesterol TG (Cayman Chem., MI, USA) and FFAs (Bioassay system, CA, USA) were determined by ELISA."}, "[4]": {"tested_on": "diet-induced obesity (DIO) mice", "assay": "TZD-associated side effects in DIO mice (PCV, heart weight, cardiac and bone genes)", "assay_type": "in vivo, mouse", "protocol": "as §2, §1"}},
  "data": [
    {"molecule": "Cc1c(C)n(Cc2ccc(-c3ccccc3C(=O)O)cc2)c2ccc(C(=O)NCc3cccc(O)c3)cc12", "note": "[WO95E, 4′-((5-((3-hydroxybenzyl)carbamoyl)-2,3-dimethyl-1H-indol-1-yl)methyl)-[1,1′-biphenyl]-2-carboxylic acid]", "values": [
      {"measurement": "IC50 fold lower than that of UHC1", "setting": "[1]; WO95E vs UHC1", "result": "approximately 70 fold"},
      {"measurement": "IC50", "setting": "[1]; competition with Fluormone PPAR Green tracer, GST-PPARγ LBD 34 nM, read-out: half-maximum inhibitory concentration (IC50), binding to PPARγ LBD", "result": "~11", "unit": "nM"},
      {"measurement": "mRNA levels of adipogenic genes PPARγ, FABP4, Glut4, PEPCK, C/EBPa", "setting": "3T3-L1 cells; 3T3-L1, compounds at 10 μM, qRT-PCR", "result": "only minimally or moderately increased"},
      {"measurement": "Oil Red O staining / adipocyte differentiation", "setting": "3T3-L1 cells; 3T3-L1, differentiation media, compounds at 10 μM", "result": "only marginally increased Oil Red O staining level"},
      {"measurement": "mRNA levels of PPARγ phosphorylation-dependent genes (adiponectin, cycp2f2, Ddx-17, Rarres2, Selenbp1)", "setting": "[2]; 3T3-L1, 10 μM, qRT-PCR", "result": "upregulation"},
      {"measurement": "S273 phosphorylation of PPARγ", "setting": "[2]; 3T3-L1 differentiated adipocytes, TNFα 10 ng/ml 1 h, compounds at 10 μM, Western blot", "result": "significantly inhibited"},
      {"measurement": "serum level of free fatty acid", "setting": "[3]; 15 mg/kg i.p. daily 4 weeks", "result": "decreased"},
      {"measurement": "total serum cholesterol", "setting": "[3]; 15 mg/kg i.p. daily 4 weeks", "result": "downward trend but did not reach statistically significant"},
      {"measurement": "triglyceride level", "setting": "[3]; 15 mg/kg i.p. daily 4 weeks, data not shown", "result": "unchanged"},
      {"measurement": "glucose tolerance (ipGTT, peak glucose and AUC)", "setting": "[3]; 15 mg/kg i.p. daily, 2 weeks, vs vehicle", "result": "significantly improved"},
      {"measurement": "insulin sensitivity (ipITT)", "setting": "[3]; 15 mg/kg i.p. daily, 2.5 weeks, vs vehicle", "result": "enhanced"},
      {"measurement": "fasting and refeeding plasma levels of insulin", "setting": "[3]; 15 mg/kg i.p. daily, vs vehicle", "result": "markedly decreased"},
      {"measurement": "mRNA levels of bone formation genes (Bglap, SPP1, ColA1)", "setting": "[4]; 4-week treatment", "result": "no apparent effect"},
      {"measurement": "packed-cell volume (PCV)", "setting": "[4]; indicator of hemodilution", "result": "unchanged"},
      {"measurement": "heart weight", "setting": "[4]; relative to vehicle", "result": "no effect"},
      {"measurement": "mRNA levels of Myh7 and Nppb in heart", "setting": "[4]; vs vehicle", "result": "not significantly altered or even lowered"}
    ]}
  ]
}
